Source: article PMC8253137, “Microbiota-derived butyrate is an endogenous HIF prolyl hydroxylase inhibitor” (Gut Microbes, 2021)
“Also recorded” adds a separate entry of the source.

Key:
PHD2_181-402 [1] = molecular target: T1, PHD2_181-402 (Homo sapiens, UniProt Q9GZT9); assay: WaterLOGSY 1D NMR binding; conditions: for binding to PHD2_181-402 (WaterLOGSY signal): 10 mM ligand, 25 μM PHD2_181-402
From the text: Next, we established whether butyrate binds directly to PHD2_181-402 using 1D WaterLOGSY NMR.[28] This method enables sensitive and robust detection of binding (dissociation constants as weak as μM to low mM) based on the magnetization transfer between water molecules, proteins, and ligands of interest in close proximity via dipolar proton–proton cross-relaxation (nuclear Overhauser effect, NOE). […] Binding and non-binding ligands can be distinguished in a WaterLOGSY spectrum via their opposite signs in relation to water for their corresponding peaks.
Following an established protocol, all NMR analyses were performed using PHD2_181-402 and the diamagnetic element (Zn^2+) rather than a paramagnetic element such as Fe^2+ that would result in inhibitive signal reduction or loss due to fast relaxation induced by the unpaired electron.[63]
Water-Ligand Observed via Gradient SpectroscopY (WaterLOGSY): Measurements were carried out on a 600 MHz triple-resonance Bruker cryoprobe spectrometer.[28] Selective water inversion was achieved using an iBURP shaped pulse with 15 ms length and an inversion bandwidth of 0.4 ppm. The mixing time was set to 1 s, and the water was suppressed using double Watergate. 1024 scans were acquired with an interscan delay of 2 s. The sample concentration was 25 µM of PHD2_181-402 mixed with 10 mM of the different ligands in NMR buffer (Tris 50 mM, NaCl 20 mM, ZnCl2 100 μM) at pH 6.5.

PHD2_181-402 [2] = molecular target: T1, PHD2_181-402; assay: Microscale thermophoresis (MST) binding

T1 sequence (Q9GZT9 181-402): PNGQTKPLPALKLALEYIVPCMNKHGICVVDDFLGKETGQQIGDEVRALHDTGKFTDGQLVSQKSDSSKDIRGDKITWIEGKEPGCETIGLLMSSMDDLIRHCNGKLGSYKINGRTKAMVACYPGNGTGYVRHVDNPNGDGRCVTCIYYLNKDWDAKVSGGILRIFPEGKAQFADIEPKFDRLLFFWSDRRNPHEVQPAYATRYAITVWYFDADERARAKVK

## CCCC(=O)O [Butyrate]
PHD2_181-402 [1]; 10 mM butyrate, 25 μM PHD2_181-402, with 150 μM 2-OG
  binding to the 2-OG and PHD2_181-402 complex (WaterLOGSY): could not bind; also recorded: absence of binding
PHD2_181-402 [1]
  binding to PHD2_181-402 (WaterLOGSY signal): clear positive signal, indicative of binding
PHD2_181-402 [1]; listed as Butyric acid
  binding to PHD2_181-402 (WaterLOGSY signal): indicating binding
PHD2_181-402 [2]
  Kd: 2 ± 3 mM
PHD2_181-402 [2]; 25 nM PHD2_181-402, with 500 nM 2-OG
  binding to PHD2_181-402 in the presence of 2-OG (MST): no butyrate binding
